Laboratory results: patent US20160051493A1, “METHODS OF TREATMENT OF KERATINOCYTE-DERIVED LESIONS” (THE TRUSTEES OF COLUMBIA UNIVERSITY IN THE CITY OF NEW YORK, priority 2012, published 2016)
“Also recorded” adds a separate entry of the source. Like-named read-outs stand apart in the source and are kept apart here.

Experiments:
SCC-13 cells [1] = test: Live-cell calcium imaging of SCC cell line SCC-13; format: cell-based, human; details: 10 mM camphor; compared with proliferating keratinocytes
Procedure: (§1) Human keratinocytes and SCC cells were washed in Ringer's solution (in mM: NaCl 140, KCl 5, D-glucose 10, HEPES 10, CaCl2 2, MgCl2 2, pH 7.2) and loaded with 5 μM fura-2AM and 1 μM pluronic (Invitrogen) for 30 minutes in the dark. During live-cell imaging, saturating concentrations of TRP agonists (10 mM Camphor, 100 μM 2-APB 1 μM Capsaicin, 300 μM Mustard oil or 3 μM 4αPDD) in Ringer's were used. Cells were imaged for 20 s to establish a baseline and then acutely treated with each agonist for 60 seconds. Imaging was performed on an Olympus IX81 microscope with a 20× (NA 0.17) objective and a Hamamatsu ORCA-R2 camera. 340- and 380-nm excitation and 540-nm emission filters were used to capture fura-2 fluorescence. Data are expressed as a ratio of fluorescent signals (340/380). All data acquisition was performed in MetaFluor. Data analysis was performed with custom algorithms in IgorPro. Cells with baseline levels ±2 SD above the mean were excluded from analysis as unhealthy. Responders were designated as cells whose 340/380 ratio was ≧20% above baseline.
(§2) Moreover, their responses to camphor mirror their respective levels of TRP channel expression.

keratin 10 (K10) = test: Western blot of keratin 10 in epidermal lysates after topical camphor; format: in vivo, FVB mice; details: 5 days
Procedure: To determine whether topical camphor treatment promotes keratinocyte differentiation in vivo, a separate cohort of adult female FVB mice were treated twice daily for a period of 5 days with increasing concentrations of topical camphor (0, 15%, 20% or 30% (wt/wt) camphor in acetone; N=3-4 mice per group). One day after the final topical dose, mice were sacrificed and epidermal lysates were prepared for immunoblot analysis according to standard protocols (Owens et al., J. Invest. Dermatol. 1996). […] Protein levels were detected by peroxidase activated luminol exposure to X-ray film and estimated by densitometry using NIH-Image J software. Levels of K10 were normalized to levels of beta-tubulin for each sample; therefore, data are expressed as the ratio of K10 to beta-tubulin (K10/beta-tubulin). […]
To determine whether topical camphor treatment promotes keratinocyte differentiation in vivo, adult female FVB mice (n=3-4 per group) were treated twice daily for a period of 5 days with increasing concentrations of topical camphor (15%, 20% or 30% (wt/wt)) or vehicle only. […] It was determined that topical camphor treatment upregulates levels of a keratinocyte terminal differentiation marker in vivo.

TRPV1 = TRPV1 (Rattus norvegicus, UniProt O35433); details: Activation; cited from earlier work
[2] = test system: normal human epidermal keratinocytes; test: Ratiometric fura-2 live-cell calcium imaging of keratinocytes; format: cell-based; details: for % Responders (differentiated) Mean ± SEM: differentiated in 1.2 mM Ca2+, 4αPDD 3 μM, camphor 10 mM, 2-APB 100 μM; for % Responders (differentiated) Mean ± SEM / % Responders (undifferentiated) Mean ± SEM or SD: responders F340:F380 increase ≧20%; for % Responders (undifferentiated) Mean ± SEM or SD: saturating agonist (4αPDD 3 μM, camphor 10 mM, 2-APB 100 μM, capsaicin 1 μM, mustard oil 300 μM), SD for capsaicin and mustard oil
Procedure: (§3) Normal human keratinocytes were isolated from human foreskins by undergoing two enzymatic dissociation steps, first in dispase then in trypsin. Cells were cultured in EpiLife supplemented with human keratinocyte growth supplement (HKGS; Invitrogen). For all experiments with undifferentiated cells, keratinocytes were harvested or images at ˜75% confluency. Differentiation was induced by adding CaCl2 to the EpiLife media to reach a final [Ca2+] of 1.2 mM. Cells were typically cultured for 3 days under differentiation conditions before they were assayed. Keratinocytes were cultured for <5 passages. Purified Camphor (CAS #76-22-2), 2-APB (Tocris) or vehicle (1% EtOH)-containing media were used as indicated.
as §1
TRP channels are selectively activated by endogenous and exogenous ligands at micromolar to millimolar concentrations. Since TRP channel activity increases over this range to allow graded Ca^2+ influx, receptor activity levels can be monitored by live-cell Ca^2+ imaging. A ratiometric calcium indicator (Fura-2) was employed to determine whether a panel of TRP-channel agonists elicited cytoplasmic calcium increases in human epidermal keratinocytes. (FIG. 1A-1E, FIG. 2A-2B, and Table 3).
Normal human keratinocytes were cultured in low-calcium media to promote proliferation or in 1.2-mM calcium media to induce differentiation. For live-cell imaging, keratinocytes were then washed and bathed in Ringer's solution containing 2 mM calcium so that calcium signals could be directly compared between cell populations.
In keratinocytes, increased intracellular calcium stimulates the terminal differentiation process. To determine whether camphor oil and its abundant constituents are directly bioactive on epithelial keratinocytes, a ratiometric Ca2+ indictor (Fura-2) was employed to test whether a panel of terpenes elicited cytoplasmic Ca2+ increases in undifferentiated human epidermal keratinocytes (FIG. 19A-19C). Keratinocytes were cultured according to our standard methods. For live-cell imaging, keratinocytes were bathed in Ringer's solution containing 2 mM Ca2+.

SCC-39 cells [3] = test: Live-cell calcium imaging of SCC cell line SCC-39; format: cell-based, human; details: 10 mM camphor; compared with SCC-13 cells
Procedure: as §1, §2

[4] = cited from earlier work
TRPA1 = details: Inhibition; read-out: Effective concentration IC50; cited from earlier work
[5] = cited from earlier work; remark: listed apart in the source
TRPV3 = details: Activation, cited from earlier work
[6] = cited from earlier work; remark: listed apart in the source
[7] = test system: normal human keratinocytes; test: Keratinocyte cell counts (DAPI), morphology and EdU proliferation assay after 24 h treatment; details: 24 hours
Procedure: as §3
Cells were treated with 2-APB or camphor for 24 hours at 37° C., exposed to EdU for 45 min, fixed and stained with DAPI for cell counting. EdU Click-It assays (Invitrogen) were used to assess cell-cycle entry. The cells were then fixed and stained with DAPI. Three fields per well were assayed via a 20× objective and there were 4 wells per treatment in each experiment. EdU=5-ethynyl-2′-deoxyuridine.
As Ca^2+ triggers the commitment switch from proliferation to differentiation in keratinocytes, it was reasoned that increasing intracellular calcium by incubating keratinocytes in TRP agonists might be sufficient to induce this cell-fate switch in low-calcium growth media. To test this hypothesis, normal human keratinocytes were cultured for 24 hours under low-Ca^2+ conditions in the presence of low (12.5 μM), half-maximal (50 μM) and saturating (100 μM) concentrations of 2-APB (FIG. 3A) or camphor (0-8 mM) (FIG. 3E). These TRP agonists were chosen because they reliably elicited intracellular calcium signaling in normal human keratinocytes (FIG. 1A-1E).
As camphor can activate both TRPV3 and TRPV1 channels, these experiments were repeated in the presence of a specific TRPV1 antagonist, AMG-9810 (Gavva et al., 2005).

human keratinocytes = details: 50 μM, 7 days
Procedure: (§4) Organotypic human skin cultures and primary SCC lines were isolated from human SCCs and cultured as previously described (Bachelor et al., 2011). In brief, human fibroblasts were seeded in a collagen matrix on a 70 μm filter insert and incubated at 37° C. for 5-7 days. Human keratinocytes or SCC cells were then seeded on the apical surface of the fibroblast-collagen matrix and cultured for 2 days submerged in media to allow monolayer formation. The media was then removed from the apical surface (raising), exposing the keratinocytes or SCC cells to air. The cultures were maintained in this fashion for up to 14 days, and the media to the fibroblasts below was changed every 2-3 days. At the time of raising, 50 μM 2-APB or vehicle (1% EtOH) was added to the media.
Sections were fixed in 4% paraformaldehyde, paraffin embedded and sectioned at 8 μm. Hematoxylin and Eosin (H&E) stained sections were imaged with a bright field microscope equipped with a 10× (0.3 NA) and 20× (0.4 NA) objectives and an Axiocam color CCD camera (Zeiss AxioObserver.Z1). Epidermal thickness was assessed by measuring the nucleated layers with ImageJ software (NIH ImageJ). Number of invading cells was determined by counting the number of round nuclei below the basement membrane per 10× field (fibroblast nuclei are flatten and were excluded). […] Six random frames per section were quantified.

ORAI1 = ORAI1 (Homo sapiens, UniProt Q96D31); details: Inhibition; cited from earlier work
SCC-13 cells [8] = details: 50 μM, 14 days
Procedure: as §4
(§5) Sections were fixed in 4% paraformaldehyde, paraffin embedded and sectioned at 8 μm. Hematoxylin and Eosin (H&E) stained sections were imaged with a bright field microscope equipped with a 10× (0.3 NA) and 20× (0.4 NA) objectives and an Axiocam color CCD camera (Zeiss AxioObserver.Z1). Epidermal thickness was assessed by measuring the nucleated layers with ImageJ software (NIH ImageJ). Number of invading cells was determined by counting the number of round nuclei below the basement membrane per 10× field (fibroblast nuclei are flatten and were excluded). Four non-serial paraffin sections per experiment were examined. Six random frames per section were quantified.
(§6) As TRP-channels are expressed in human SCC keratinocytes and TRP agonists arrest keratinocyte proliferation, it was reasoned that TRP agonists might be candidates for SCC-targeted therapy. To test this notion, organotypic human skin cultures were seeded with SCC cells.

SCC-39 cells [9] = details: 50 μM, 14 days
Procedure: as §4, §5, §6

SCC-73 cells = details: 50 μM, 14 days
Procedure: as §4, §5, §6

[10] = test system: keratinocyte differentiation genes (LOR, FLG, IVL, TGM3); details: 50 μM, 24 hours
Description: RNA was isolated using RNeasy Kit (Qiagen) and reversed transcribed. Four technical replicates were run for each primer set and cDNA sample using SYBR Green (Applied Biosystems) for quantitative readout. Complementary DNA was synthesized with oligo-dT primers and SuperScript III (Invitrogen). Primers were generated in Primer3. Primer pairs were optimized for qPCR and validated in control specimens. […] Melting curves were generated for all products to confirm a single amplicon for each product. To determine gene expression in each sample, cycle thresholds (CT) of the gene of interest were normalized to the reference gene GAPDH (ΔCT). Fold change was determined using the ΔΔCT method where vehicle or growth conditions were used as the calibrator (ΔΔCT=[(CT(target gene)−CT(reference gene)]−[CT(calibrator)]−CT(reference gene)]. All gene amplifications were performed in quadruplicate.

TRPC1 = TRPC1 (Homo sapiens, UniProt P48995); details: cited from earlier work
skin tumors = details: mouse, in vivo; cited from earlier work
DNA = details: cited from earlier work

Sequence of TRPC1 (P48995 whole entry, species assumed): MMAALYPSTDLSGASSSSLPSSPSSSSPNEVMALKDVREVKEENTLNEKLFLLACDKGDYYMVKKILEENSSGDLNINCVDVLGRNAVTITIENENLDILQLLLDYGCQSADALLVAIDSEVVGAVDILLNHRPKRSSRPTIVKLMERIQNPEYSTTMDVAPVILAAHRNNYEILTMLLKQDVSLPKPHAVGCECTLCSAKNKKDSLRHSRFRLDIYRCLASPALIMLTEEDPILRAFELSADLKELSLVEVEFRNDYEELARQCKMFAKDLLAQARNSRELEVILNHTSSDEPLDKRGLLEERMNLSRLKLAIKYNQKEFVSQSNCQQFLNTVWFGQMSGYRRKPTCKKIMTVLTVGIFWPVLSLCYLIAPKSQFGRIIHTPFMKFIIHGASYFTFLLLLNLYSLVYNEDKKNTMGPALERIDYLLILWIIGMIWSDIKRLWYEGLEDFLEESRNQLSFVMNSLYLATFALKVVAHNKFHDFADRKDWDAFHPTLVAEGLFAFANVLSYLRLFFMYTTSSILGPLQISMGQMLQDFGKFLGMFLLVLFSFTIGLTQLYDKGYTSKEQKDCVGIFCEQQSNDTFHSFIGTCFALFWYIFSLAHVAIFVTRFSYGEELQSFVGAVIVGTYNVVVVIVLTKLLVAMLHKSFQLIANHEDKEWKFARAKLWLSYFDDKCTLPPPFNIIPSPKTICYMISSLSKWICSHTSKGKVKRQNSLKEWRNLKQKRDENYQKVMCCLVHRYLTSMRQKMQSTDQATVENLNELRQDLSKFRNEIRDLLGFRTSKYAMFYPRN
Sequence of ORAI1 (Q96D31 whole entry, species assumed): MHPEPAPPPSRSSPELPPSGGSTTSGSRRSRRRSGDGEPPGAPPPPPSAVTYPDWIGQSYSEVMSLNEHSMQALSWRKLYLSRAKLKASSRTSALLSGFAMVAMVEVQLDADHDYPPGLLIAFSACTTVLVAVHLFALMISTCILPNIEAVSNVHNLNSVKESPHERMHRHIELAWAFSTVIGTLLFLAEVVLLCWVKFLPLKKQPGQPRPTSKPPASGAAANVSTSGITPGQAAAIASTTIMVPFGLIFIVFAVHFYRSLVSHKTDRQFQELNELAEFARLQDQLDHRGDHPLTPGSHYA
Sequence of TRPV1 (O35433 whole entry): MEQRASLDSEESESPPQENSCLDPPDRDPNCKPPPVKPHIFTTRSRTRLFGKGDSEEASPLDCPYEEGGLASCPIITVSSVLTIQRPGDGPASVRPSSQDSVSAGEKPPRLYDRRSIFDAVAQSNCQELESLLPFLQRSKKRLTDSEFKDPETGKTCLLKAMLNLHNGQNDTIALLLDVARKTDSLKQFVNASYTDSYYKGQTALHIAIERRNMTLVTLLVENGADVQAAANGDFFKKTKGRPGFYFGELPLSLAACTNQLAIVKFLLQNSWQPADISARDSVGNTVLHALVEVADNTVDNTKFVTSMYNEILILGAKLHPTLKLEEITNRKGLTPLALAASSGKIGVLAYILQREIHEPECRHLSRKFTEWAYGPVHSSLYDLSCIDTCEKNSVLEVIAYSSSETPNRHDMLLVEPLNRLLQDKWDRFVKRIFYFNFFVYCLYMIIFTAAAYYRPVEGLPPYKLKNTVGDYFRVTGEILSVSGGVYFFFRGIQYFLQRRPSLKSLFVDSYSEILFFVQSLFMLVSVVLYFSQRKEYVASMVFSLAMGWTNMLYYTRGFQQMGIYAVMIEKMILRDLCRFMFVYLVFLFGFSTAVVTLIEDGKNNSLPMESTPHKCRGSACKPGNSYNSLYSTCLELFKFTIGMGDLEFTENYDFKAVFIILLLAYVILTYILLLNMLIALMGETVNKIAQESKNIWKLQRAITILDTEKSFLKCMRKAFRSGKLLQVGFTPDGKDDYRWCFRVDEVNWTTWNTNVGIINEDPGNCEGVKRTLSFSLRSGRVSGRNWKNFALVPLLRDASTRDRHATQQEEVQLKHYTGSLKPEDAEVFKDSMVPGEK

In the case of CC12CCC(CC1=O)C2(C)C (racemic) [Camphor, 1,7,7 Trimethylbicyclo[2.2.1]heptan-2-one], the “camphor-evoked cytoplasmic calcium signals” value (SCC-13 cells [1]) is reported as “increased”, the “expression of K10” value (keratin 10 (K10); 15%, 20% or 30% (wt/wt) topical twice daily) is reported as “increased with camphor treatment in a dose-dependent manner; also recorded: upregulates” and the “K10 protein levels (K10/beta-tubulin) versus lower concentrations or vehicle” value (keratin 10 (K10); 30% (wt/wt) topical twice daily) is reported as “significantly higher”. For the same compound, the “Effective concentration Range” value (TRPV1) was “Range = 1-10 mM”, the “proportion of cells showing Ca2+ increases, differentiated versus proliferating keratinocytes” value ([2]; 10 mM camphor) was 5.7 fold and the “% Responders (differentiated) Mean ± SEM” value [2] was 37.5 ± 15.7%. For the same compound, the “magnitude of camphor-evoked responses, increase over baseline” value ([2]; differentiated keratinocytes) was 78±1%, the “magnitude of camphor-evoked responses, increase over baseline” value ([2]; growth conditions) was 55±1% and the “% Responders (undifferentiated) Mean ± SEM or SD” value ([2]; growth conditions) was 6.5 ± 2.8%. The camphor-evoked calcium responses (SCC-39 cells [3]) was “significantly fewer”, the “sensation on skin of volunteers” value ([4]; 20% solution in alcohol, normal skin temperatures (Green 1990)) was “no significant sensation of irritation or pain” and the “doses reported to cause skin irritation as well as toxicity when ingested” value ([4]; in vivo) was over 20%. The IC50 (TRPA1) was 68 µM, the solubility in water [5] was “slightly soluble” and the “Effective concentration Range” value (TRPV3) was “Range = 2-10 mM”. For the same compound, the absorption ([6]; after inhalation or dermal exposure (Baselt and Cravey 1990)) was “well absorbed”, the plasma concentrations ([6]; low-dose (46.80 mg) dermal application (Martin et al. 2004)) was “low plasma concentrations” and the “concentration that arrests proliferation without inducing necrotic changes” value [7] was 4 to 8 mM.
In the case of NCCOB(c1ccccc1)c1ccccc1 [2-APB, 2-aminoethoxydiphenyl borate], the nucleated epidermal layers (human keratinocytes) is given as “one-third reduction”, the “Effective concentration Range” value (ORAI1) is given as “Range = 5-50 μM” and the “reduction of tumor formation above the dermis” value (SCC-13 cells [8]) is given as over 37%. For the same compound, the tumor thickness (SCC-13 cells [8]) was “reduced tumor thickness”, the “inhibition of cell invasion versus vehicle-treated cultures” value (SCC-39 cells [9]) was over 93% and the “reduction of tumor formation above the dermis” value (SCC-39 cells [9]) was over 37%. For the same compound, the tumor thickness (SCC-39 cells [9]) was “reduced tumor thickness”, the “invasive nature and growth of tumor cells” value (SCC-73 cells) was “dramatically reduced” and the tumor thickness (SCC-73 cells) was “reduced tumor thickness”. The “% Responders (differentiated) Mean ± SEM” value [2] was 13.0 ± 7.2%, the “% Responders (undifferentiated) Mean ± SEM or SD” value ([2]; growth conditions) was 2.5 ± 0.9% and the “involucrin (IVL) expression” value [10] was “little change”. The “transglutaminase 3 (TGM3) expression” value [10] was “little change”, the “FLG transcript level induction versus vehicle” value ([10]; low-calcium growth media) was “more than 15 fold” and the “LOR transcript level induction versus vehicle” value ([10]; low-calcium growth media) was “more than 15 fold”. For the same compound, the “Effective concentration Range” value (TRPV3) was “Range = 3.2-320 μM”, the EC50 (TRPV3; read-out: Effective concentration EC50) was 28 µM and the “Effective concentration Range” value (TRPC1; Activation) was “Range = 5-10 μM”. For the same compound, the “Effective concentration Range” value (TRPC1; Inhibition) was “Range = 50-100 μM”, the EdU incorporation ([7]; 12.5 μM) was “significant increased” and the “cell population compared with vehicle-treated controls” value ([7]; 12.5 μM, low-Ca2+, one set of primary keratinocytes) was 325+/−5%. The “EdU incorporation (cell-cycle arrest)” value ([7]; 50 μM) was “completely inhibited”, the cell number ([7]; 50 μM) was “slight reduction” and the “keratinocyte morphology and cell numbers (cytotoxicity)” value ([7]; 100 μM) was “necrotic morphological changes and a loss of cell numbers”. The keratinocyte morphology ([7]; 12.5 or 50 μM) was “indistinguishable from vehicle-treated cells” and the “concentration that arrests proliferation without inducing necrotic changes” value [7] was 0.05 mM.
In the case of Nc1ccc(C(=O)O)cc1 [p-Aminobenzoic acid], the “Results of safety: against skin tumors in mice” value (skin tumors) is listed as “Protects” and the “Results of safety: DNA defects” value (DNA) is listed as “increase”.
